Here are results for 58 compounds from ChEMBL document CHEMBL1201862, “PubChem BioAssay data set” (2004).

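Where inhibition never reached the appropriate level, the endpoint shown equals the highest concentration tested. Otherwise, values were interpolated linearly from a five-concentration, 48-hour dose response in 96-well plates. The concentration for 50% growth inhibition is given as GI50.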 The source made the active and inactive calls. No stated cut-off is given here; in the data, active = GI50 up to about 1.1 µM and inactive = higher.

What all share (assay): growth of human tumour cells (NCI), 48 h
Assay [1] relates to BT-549.
The subject of assay [2] is DLD-1.
In assay [3] the test system is DMS-114.
For assay [4], the system named is DMS-273.
The test system of assay [5] is HOP-18.
Assay [6] has as its system KM-20L2.
Assay [7] concerns M19-MEL.
For assay [8], the system named is XF498.
The test system of assay [9] is RXF 631.

For `CC(=O)Nc1ccc(-c2nc3ccccc3s2)cc1C`, the GI50 in [1] was 27.5 µM (inactive).

Take `O=C(Nc1cccc(Cl)c1)Nn1cnnc1`: in assay [1], the GI50 was > 100 µM (inactive).

Regarding `N=C(N)N/N=C(/c1ccccc1)c1ccc(O)cc1O`, the GI50 in assay [1] was 37.5 µM (inactive).

Regarding `CC(=O)Oc1cc2c(cc1OCC(F)(F)F)[C@H]1CC[C@]3(C)[C@@H](OC(C)=O)CC[C@H]3[C@@H]1CC2=O`, in assay [1], the GI50 is 18.4 µM (inactive).

Take `O=C(O)c1ccc2c(c1C(=O)O)C(=O)OC2(c1ccc(O)cc1)c1ccc(O)cc1`: the GI50 in assay [1] was > 100 µM (inactive).

In the case of `CC1=NN(c2nc(N)nc(COc3ccc(N)cc3)n2)C(C)(C)C1`, in assay [1], the GI50 was > 100 µM (inactive).

As to `O=c1[nH]ncc2[nH]c3c(c12)CCc1ccccc1-3`, in [1], the GI50 was 35.5 µM (inactive).

With `COc1ccc(SCc2cc(OC)ccc2OC)cc1`, the GI50 in assay [1] was 16.1 µM (inactive).

With `C=CCCCCCCC#CCCCCCCCCCC[C@@H]1C(=O)O[C@H](C)[C@@H]1O.CCCCCCCCC#CCCCCCCCCCC[C@@H]1C(=O)O[C@H](C)[C@@H]1O`, the GI50 in assay [1] was 15.5 µM (inactive).

In the case of `FC(F)(Sc1ccccn1)c1nc2ccccc2o1`, the GI50 in [1] was 64.1 µM (inactive).

With `O=C(c1c(O)cc(O)cc1O)C1Cc2ccccc21` (stereo not given), the GI50 in assay [2] was > 100 µM (inactive); in [3] it was > 100 µM (inactive); in assay [4] it was 48.2 µM (inactive); in assay [5], 3.18 µM (inactive); in assay [6] it was > 100 µM (inactive); in [7], > 100 µM (inactive).

For `N/C(=N\N=C\c1nc2ccccc2o1)c1cnccn1`, the GI50 in assay [1] was > 100 µM (inactive).

With `COc1nc(NC2OC(COC(C)=O)C(OC(C)=O)C(OC(C)=O)C2OC(C)=O)c(/N=C(\C)C(C)=O)c(=O)n1C` (stereo not given), the GI50 was > 100 µM (inactive) in assay [2]; > 100 µM (inactive) in [3]; > 10 µM (inactive) in assay [4]; > 100 µM (inactive) in assay [5]; > 100 µM (inactive) in assay [6]; > 100 µM (inactive) in assay [7]. For the same compound, the GI50 in [8] is > 100 µM (inactive).

For `CN1C(=O)C(c2c[nH]c3ccccc23)N(C)C(=O)C1c1c[nH]c2ccccc12` (stereo not given), the GI50 in [1] is > 100 µM (inactive).

In the case of `N#CCCN(CCC#N)c1ccc(C(/N=N/c2ccc(Cl)cc2)=N\c2ccccc2)cc1`, in [1], the GI50 was 3.33 µM (inactive).

For `O=C1CCC2(c3ccc(Cl)cc3)Nc3ncccc3N12` (stereo not given), the GI50 in assay [2], in assay [3], in [6], in assay [7] and in assay [8] was > 100 µM (inactive) in each case.

For the compound `COc1ccc(CCN2C(=O)CC34C=CC(CC3C2=O)O4)cc1OC` (stereo not given), the GI50 in assay [1] is > 100 µM (inactive).

Turning to `COC(=O)CC1C(COC(C)=O)OC(n2cc(C)c(=O)[nH]c2=O)C1OC(C)=O` (stereo not given), in assay [1], the GI50 is > 100 µM (inactive).

On to `C=CCOCn1ccc(=O)[nH]c1=O`, for which the GI50 in assay [1] was > 100 µM (inactive).

With `COC(=O)C1C(=O)C=CN([C@H](C)c2ccccc2)[C@@H]1Cc1ccc(OC)c(OCc2ccccc2)c1I` (stereo not given in full), the GI50 in assay [1] was 18.3 µM (inactive).

As to `O=[N+]([O-])c1ccc2nc(O)n[n+]([O-])c2c1`, the GI50 in assay [1] was > 100 µM (inactive).

`COc1ccc(C(=O)/C=C/c2ccc3c(c2)OCO3)c(OCc2ccccc2)c1`: the GI50 in assay [1] was 4.79 µM (inactive).

Turning to `COc1ccc(/C=C/c2cnnc3ccccc23)cc1OC`, in [1], the GI50 was > 10 µM (inactive).

Regarding `CC(C)(c1cn(Cc2ccccc2)c2ccccc12)c1cn(Cc2ccccc2)c2ccccc12`, the GI50 in [2] is 91.2 µM (inactive); in assay [3] it was > 100 µM (inactive); in assay [7] it was > 100 µM (inactive).

Turning to `O=C(Cc1nc2ccccc2s1)Nc1ccc(Cl)cc1`, the GI50 was 91.6 µM (inactive) in [2]; 84.7 µM (inactive) in assay [4]; 50.6 µM (inactive) in [6]; > 100 µM (inactive) in assay [7]; > 100 µM (inactive) in [8].

For the compound `CCN(CC)C(=C(C(Cl)=C(Cl)Cl)[N+](=O)[O-])N(CC)CC`, in [1], the GI50 was 83 µM (inactive).

Regarding `C[N+]1(C)CCCC1C(=O)[O-]` (stereo not given), the GI50 in assay [2], in assay [3], in [4], in assay [5], in assay [6] and in [7] was > 100 µM (inactive) each time. The GI50 in assay [8] was > 100 µM (inactive).

Regarding `CCC1CC2CN3CCc4c([nH]c5c(-c6c(OC)ccc7c8c([nH]c67)[C@]6(C(=O)OC)CC7CC(CC)C6N(CC8)C7)c(O)ccc45)[C@](C(=O)OC)(C2)C13` (stereo not given in full), in [1], the GI50 was 17.3 µM (inactive).

Consider `CSc1ncc2c(C#N)c3n(C)c4ccccc4n3c(=O)c2n1`, for which the GI50 in [1] was > 100 µM (inactive).

Regarding `COC1(OC)CCc2c(sc3ncnc(Nc4cccc(Br)c4)c23)C1`, the GI50 in assay [1] is 94.2 µM (inactive).

On to `CC1C=C(NCC2(CO)CCC2)N=C(N)N1` (stereo not given), for which the GI50 in [1] is > 100 µM (inactive).

As to `CC(C)/C(Cl)=N\OC(=O)Nc1ccc(F)c([N+](=O)[O-])c1`, the GI50 in assay [1] is 13.4 µM (inactive).

Regarding `N#CCOc1cccc(C2(N3CC=CCC3)CCCCC2)c1`, in [1], the GI50 was > 100 µM (inactive).

`Clc1ccc(C(OCn2ccnc2)c2nc3ccccc3[nH]2)c(Cl)c1` (stereo not given): the GI50 in assay [1] was 26.1 µM (inactive).

Take `O=C(c1ccccc1)c1ccc2c(c1)nc1n2C(c2c(Cl)cccc2Cl)SC1` (stereo not given): the GI50 in [1] is 77.1 µM (inactive).

With `Cc1ccc([N+](=O)[O-])cc1S(=O)(=O)Nc1ccc(C2=NNC(c3ccccc3)C2)cc1` (stereo not given), in assay [1], the GI50 is 18.4 µM (inactive).

With `CSc1cc(Cl)c(C(=O)Nc2ccccc2)cc1S(=O)(=O)n1ccnc1O`, the GI50 in assay [1] is > 100 µM (inactive).

Consider `N#COc1ccc(Oc2ccccc2)cc1`, for which the GI50 was > 100 µM (inactive) in assay [2]; 31.1 µM (inactive) in assay [3]; 22.5 µM (inactive) in assay [4]; > 100 µM (inactive) in [5]; > 100 µM (inactive) in assay [6]; > 100 µM (inactive) in assay [7]. Also, the GI50 in assay [8] was 97.3 µM (inactive).

With `NCC(O)CNCC/C=C\C/C=C\C/C=C\C/C=C\C/C=C\C/C=C\CCCCC/C=C\CCNCC(O)CN` (stereo not given), in assay [1], the GI50 was 2.94 µM (inactive).

Consider `C[n+]1ccccc1/C=C/c1ccc2c(c1)OCO2`, for which, in [1], the GI50 is > 10 µM (inactive).

As to `CC(=O)OC1(C#N)CC2OC1C1C2N1C(=O)OC(C)(C)C` (stereo not given), the GI50 in assay [2], in assay [3], in [6], in [7] and in [8] was > 100 µM (inactive) throughout.

For `Nc1ncnc2sc(Nc3ccccc3)nc12`, the GI50 is > 100 µM (inactive) in assay [2]; > 100 µM (inactive) in assay [4]; 43.8 µM (inactive) in assay [6]; > 100 µM (inactive) in assay [7]; 9.86 µM (inactive) in [9]; > 100 µM (inactive) in [8].

`N#CC1CC2(CCN1C(=O)c1ccccc1)OCCO2` (stereo not given): the GI50 in assay [2], in assay [3], in assay [4], in [5], in assay [6] and in [7] was > 100 µM (inactive) in each case. For the same compound, the GI50 in assay [8] is > 100 µM (inactive).

As to `O=C1CC(c2cccc([N+](=O)[O-])c2)C2(C(=O)NC(=S)NC2=O)C(c2cccc([N+](=O)[O-])c2)C1` (stereo not given), in assay [1], the GI50 was 26.2 µM (inactive).

On to `COc1ccc2c3c1C(=O)CCCC3CO2` (stereo not given), for which the GI50 in assay [2], in [3], in assay [4], in assay [7] and in assay [8] was > 100 µM (inactive) each time.

As to `CC1(C)C2CC(=O)C1(C)C(O)C2Br` (stereo not given), the GI50 in assay [1] was > 100 µM (inactive).

`O=S(=O)(O)/C(=N\c1cccc(Cc2ccccc2)c1)Nc1cccc(Cc2ccccc2)c1`: the GI50 in assay [1] is 17.7 µM (inactive).

With `Cc1ccccc1Nc1cn(CCOc2ccccc2)c(=O)n(CCOc2ccccc2)c1=O`, the GI50 in [1] is > 100 µM (inactive).

`CC(SC(=O)Nc1ccc(/N=N/c2ccccc2)cc1)C(=O)O` (stereo not given): the GI50 in assay [3] is > 100 µM (inactive); in assay [4], 48.6 µM (inactive); in assay [6] it was > 100 µM (inactive).

Take `CN(C)c1ccc(/C=c2/sc3nc(=O)c(-c4ccccc4NC(=O)C(F)(F)F)nn3c2=O)cc1`: the GI50 in [2] was > 100 µM (inactive); in [3], 20.6 µM (inactive); in [4], > 100 µM (inactive); in [7], > 100 µM (inactive); in assay [8] it was > 100 µM (inactive).

Consider `CCOC(=O)Cc1nnc2c(-c3ccccc3)nc3ccccc3n12`, for which the GI50 in assay [1] was > 100 µM (inactive).

Consider `O=C1c2ccccc2C(=O)c2c(NCC3CO3)cccc21` (stereo not given), for which the GI50 in [1] is 19 µM (inactive).

In the case of `CC1(C)[C@@H]2CC[C@@]1(C)C1(S[S+]1[O-])C21Cc2ccccc2C1` (stereo not given in full), in [1], the GI50 was 32.1 µM (inactive).

As for `Oc1cccc(-c2cc(O)c3cc4c(cc3n2)OCO4)c1`, the GI50 in assay [1] was 0.867 µM (active); in assay [2], 3.43 µM (inactive); in assay [3] it was 0.721 µM (active); in [4] it was 1.09 µM (active); in assay [5], > 100 µM (inactive); in assay [7], 1.49 µM (inactive). Moreover, in [8], the GI50 is 7.26 µM (inactive).

Turning to `Nc1cccc(-c2cc(O)c3cc4c(cc3n2)OCO4)c1`, the GI50 in assay [1] was > 100 µM (inactive); in assay [4] it was 0.889 µM (active); in [5] it was 40.2 µM (inactive); in [7], 0.931 µM (active); in [8], 7.26 µM (inactive).

Consider `Cc1c2cc[n+](C)cc2c(C)c2c1[nH]c1ccc(OCC(F)(F)F)cc12`, for which the GI50 in assay [2] was 1.4 µM (inactive); in assay [3], 1.42 µM (inactive); in [4], 1.25 µM (inactive); in assay [5], 1.96 µM (inactive); in assay [6] it was 3.15 µM (inactive); in assay [7], 2.14 µM (inactive).

Regarding `COc1ccc(-c2cc(=O)c3ccc(O)cc3o2)c(OC)c1OC`, the GI50 in assay [2] was 93.1 µM (inactive); in assay [3], 33.2 µM (inactive); in [6], 43 µM (inactive); in [7] it was 74.3 µM (inactive); in assay [8], 65.5 µM (inactive).

Regarding `O=c1[nH]cc(F)c(=O)[nH]1` [FLUOROURACIL], the GI50 in assay [1] was 110 µM (inactive).
